Assays:
[1] = system: femoral neck BMD in postmenopausal women with osteoporosis; assay: Percent change in femoral neck BMD by DXA, phase III study; type: in vivo, human; settings: for percent change in femoral neck BMD from baseline to 48 weeks (LSM ± SE): as given in the abstract, population not given; for percent change in femoral neck BMD from baseline to 48 weeks (LSM ± SE) / Percent change in femoral neck BMD from baseline at Week 24, LSM ± SE / Percent change in femoral neck BMD from baseline at Week 48, LSM ± SE: 20 μg s.c. once daily; for Percent change in femoral neck BMD from baseline at Week 24, LSM ± SE / Percent change in femoral neck BMD from baseline at Week 48, LSM ± SE: mITT population, LOCF, DXA
Method: (§1) A multicenter, randomized, active‐controlled, double‐blind, parallel‐group phase III study was conducted between August 2018 and August 2020 at 17 sites in India. The study was conducted as per the principles and requirements of the Declaration of Helsinki (2013), and ICH‐GCP (E6‐R2, Step 4) guidelines along with the local regulatory requirements of Good Clinical Practices for Clinical Research in India (2004), ICMR guidelines for Biomedical Research on Human Subjects (2017) and New Drugs and Clinical Trial Rules, 2019 (CDSCO) and after approvals from respective Institutional Ethics Committees. The study was registered on the Clinical Trial Registry of India (CTRI/2018/05/014254).
(§2) After signing of the informed consent form, the subjects were screened to assess eligibility according to the study selection criteria. Postmenopausal women between the ages of 50–80 years with BMD T‐SCORE less than −2.5 at the lumbar spine or femoral neck were enrolled in the study.
(§3) All participants were provided with daily oral supplementation of 1000 mg of calcium and 500 IU of vitamin D3.
(§4) Medications known to affect bone metabolism, such as bisphosphonates, raloxifene, and denosumab, as well as drugs associated with reduced bone density, including glucocorticoids, aromatase inhibitors, and tamoxifen, were prohibited during the study. Throughout the treatment period, data were collected for primary and secondary endpoints. BMD was evaluated using dual‐energy X‐ray absorptiometry (DXA) as part of the efficacy assessments. Laboratory samples were collected during the treatment phase to support efficacy and safety evaluations, and all laboratory analyses were conducted at a central laboratory.
(§5) The primary endpoint of the study was the percent change in BMD of the lumbar spine and proximal femur, assessed using dual‐energy X‐ray absorptiometry (DXA) from baseline to Weeks 24 and 48. All DXA measurements were analyzed centrally, and the results were not disclosed to individual study centers to ensure unbiased interpretation. Secondary endpoints included the change from baseline in the pharmacodynamic parameter serum P1NP (procollagen type 1 N terminal propeptide), which was assessed at randomization and Weeks 12, 24, and 48. […] Serum biochemistry analyses were performed at baseline and at Weeks 4, 12, 24, and 48.
(§6) The efficacy analysis was performed on all the subjects in mITT (modified intention‐to‐treat) and PP (per protocol) population. Any missing postbaseline data were imputed using the last observation carried forward (LOCF) procedure. For the analysis of change from baseline to Week 12 (for P1NP), Week 24, and Week 48, a regression model with percent change from baseline as the response variable and the stratification variable was used for randomization, and treatment as independent variables was fit to test the mean difference between the two treatments in percent change. Adjusted least square mean (LSM) and the standard error values along with the p value and the 95% confidence interval (CI) of the difference were presented.

[2] = system: serum P1NP (procollagen type 1 N terminal propeptide); assay: Change from baseline in serum P1NP (bone turnover marker); type: in vivo, human; settings: mITT population; 20 μg s.c. once daily
Method: as §3, §5, §6

[3] = Pharmacokinetic sub-study, plasma teriparatide on Day 1; type: in vivo, human; settings: Day 1, 20 μg s.c., sampling to 240 min, noncompartmental, n = 15 per arm
Method: Pharmacokinetic (PK) assessments were performed on a subset of subjects who voluntarily consented to participate in an additional PK sub‐study alongside the main study. […] Blood samples for PK analysis were collected at the study site on Day 1 (Visit 2, i.e., the randomization visit) at specified time points: pre‐dose (within 30 min before the first investigational product [IP] administration) and at 5‐, 10‐, 20‐, 30‐, 45‐, 60‐, 90‐, 120‐, 180‐, and 240‐min post‐IP administration.
PK parameters (C max, AUC0–t , and T max) measured in plasma were calculated by noncompartmental methods, using Phoenix software for the PK population on Day 1. Descriptive statistics (number of subjects [n], mean, standard deviation, median, minimum, and maximum [range]) were calculated for all evaluable PK parameters by treatment group for the PK population.

[4] = system: lumbar spine BMD in postmenopausal women with osteoporosis; assay: Percent change in lumbar spine BMD by DXA, phase III study; type: in vivo, human; settings: for Percent change in lumbar spine BMD from baseline at Week 24, LSM ± SE / Percent change in lumbar spine BMD from baseline at Week 48, LSM ± SE: mITT population, LOCF, 20 μg s.c. once daily, DXA
Method: as §1, §2, §3, §4, §5, §6

lumbar spine (L2–L4) BMD = system: lumbar spine (L2–L4) BMD; design: method as in PMID 31243480; settings: study of biosimilar approved in Japan; cited from earlier work
femoral neck BMD = system: femoral neck BMD; design: method as in PMID 11346808; settings: Fracture Prevention Trial; after 2 years of 20 μg daily; cited from earlier work
[5] = design: method as in PMID 31243480; settings: Fracture Prevention Trial; 20 μg; cited from earlier work
lumbar spine BMD = system: lumbar spine BMD; design: method as in PMID 11346808; settings: Fracture Prevention Trial; after 2 years of 20 μg daily; cited from earlier work
[6] = biosimilar versus reference teriparatide, mITT
[7] = versus reference teriparatide, Week 24 and Week 48, mITT
[8] = listed as Proposed biosimilar teriparatide (T)
[9] = listed as Reference teriparatide (R)

For teriparatide [Biosimilar teriparatide], which “estimated between-group difference (95% CI), femoral neck BMD percent change to 48 weeks” value ([1]; abstract, biosimilar versus reference, noninferiority margin −1.44%) is on record?
The value was 1.44%.

And the “percent change in femoral neck BMD from baseline to 48 weeks (LSM ± SE)” value [1]?
Its value is 3.94% ± 0.83.

What about the “LSM difference (95% CI), femoral neck BMD percent change at Week 24” value [1, 6] of the same substance?
Its value is 1.576 (−1.048, 4.199).

And the “LSM difference (95% CI), femoral neck BMD percent change at Week 48” value [1, 6]?
Its value is 0.173 (−3.146, 3.493).

And the “Percent change in femoral neck BMD from baseline at Week 24, LSM ± SE” value [1]?
Its value is 3.37 ± 0.78%.

And the “Percent change in femoral neck BMD from baseline at Week 48, LSM ± SE” value [1]?
Its value is 4.03 ± 0.96 (p = 0.003) %.

What about the “noninferiority in femoral neck BMD percentage change” value [1, 7] of the same substance?
Its value is “noninferiority”.

What about the “Serum P1NP concentration, change from baseline to Week 12 (LSM ± SE)” value [2] of the same substance?
The value was 24.38 ± 4.44.

And the “Serum P1NP concentration, change from baseline to Week 24 (LSM ± SE)” value [2]?
Its value is 33.05 ± 7.00.

What about the “Serum P1NP concentration, change from baseline to Week 48 (LSM ± SE)” value [2] of the same substance?
The value was 48.52 ± 7.24.

What about the “AUC(0–t), geometric least squares mean” value [3, 8] of the same substance?
The value was 6132.45 min.

And the “C max, geometric least squares mean” value [3, 8]?
The value was 0.10879 ng/mL.

And the “estimated between-group difference (95% CI), lumbar spine BMD percent change to 48 weeks” value ([4]; abstract, biosimilar versus reference, noninferiority margin −2.43%)?
The value was −0.56%.

What about the “LSM difference (95% CI), lumbar spine BMD percent change at Week 24” value [4, 6] of the same substance?
The value was −0.410 (−3.191, 2.372).

And the “LSM difference (95% CI), lumbar spine BMD percent change at Week 48” value [4, 6]?
Its value is −0.754 (−4.011, 2.502).

And the “Percent change in lumbar spine BMD from baseline at Week 24, LSM ± SE” value [4]?
Its value is 7.16 ± 0.82%.

And the “Percent change in lumbar spine BMD from baseline at Week 48, LSM ± SE” value [4]?
The value was 8.46 ± 0.94%.

And the “noninferiority in lumbar spine BMD percentage change” value [4, 7]?
The value was “noninferiority”.

With “teriparatide [Reference teriparatide, reference compound]” as the substance, how does the “percent change in femoral neck BMD from baseline to 48 weeks (LSM ± SE)” value [1] read?
The value was 2.50% ± 1.20.

What about the “Percent change in femoral neck BMD from baseline at Week 24, LSM ± SE” value [1] of the same substance?
The value was 1.79 ± 1.07%.

What about the “Percent change in femoral neck BMD from baseline at Week 48, LSM ± SE” value [1] of the same substance?
Its value is 3.86 ± 1.24 (p = 0.024) %.

And the “percent change from baseline to 52 weeks in lumbar spine (L2–L4) BMD (mean ± SE)” value (lumbar spine (L2–L4) BMD)?
The value was 9.65% ± 6.22%.

And the “Serum P1NP concentration, change from baseline to Week 12 (LSM ± SE)” value [2]?
The value was 21.95 ± 6.02.

What about the “Serum P1NP concentration, change from baseline to Week 24 (LSM ± SE)” value [2] of the same substance?
The value was 51.07 ± 9.63.

And the “Serum P1NP concentration, change from baseline to Week 48 (LSM ± SE)” value [2]?
The value was 34.30 ± 9.98.

What about the “AUC(0–t), geometric least squares mean” value [3, 9] of the same substance?
Its value is 6387.59 min.

And the “C max, geometric least squares mean” value [3, 9]?
Its value is 0.10589 ng/mL.

What about the “Percent change in lumbar spine BMD from baseline at Week 24, LSM ± SE” value [4] of the same substance?
The value was 7.57 ± 1.13%.

What about the “Percent change in lumbar spine BMD from baseline at Week 48, LSM ± SE” value [4] of the same substance?
The value was 9.22 ± 1.34%.

What does the source list for teriparatide?
percentage increase in BMD at the femoral neck (mean ± SE) (femoral neck BMD): 2.8 ± 5.7%; TEAE dizziness [5]: 9%; TEAE leg cramps [5]: 3%; percentage increase in BMD at the lumbar spine (mean ± SE) (lumbar spine BMD): 9.7 ± 7.4%

Which “percent change from baseline to 52 weeks in lumbar spine (L2–L4) BMD (mean ± SE)” value (lumbar spine (L2–L4) BMD) does the source give for “RGB‐10: proposed biosimilar teriparatide approved in Japan” here?
Its value is 8.94% ± 6.19%.
